Assay results taken from patent US20140038953A1, “COMPOSITIONS AND METHODS FOR CARDIOVASCULAR DISEASE” (THE GENERAL HOSPITAL CORPORATION, priority 2011, published 2014).
“Also recorded” adds a separate entry of the source.

What was measured:
[1] = tested on: constitutively-active mutant form of ALK2; assay: Mouse model of FOP (constitutively-active mutant ALK2); assay type: in vivo; conditions: 3 mg/kg ip twice daily
Source text: A mouse model of FOP has been developed in which expression of a constitutively-active mutant form of ALK2 is induced by injecting the popliteal fossa of a genetically-modified mouse with an adenovirus directing expression of Cre recombinase. This model reproduces the ectopic calcification and disability seen in FOP patients.

[2] = tested on: LDLR−/− mice; assay: Vascular inflammation / macrophage activity in LDLR−/− mice (Prosense, MAC2); assay type: in vivo; conditions: for vascular inflammation / macrophage activity (Prosense): high fat diet 20 weeks, 2.5 mg/kg ip daily, vs vehicle, 2.5 mg/kg
Description: Fluorescence reflectance imaging (FRI), was performed as previously described. […] After dissection, aortae were subjected to ex vivo near infrared fluorescence reflectance imaging using an Odyssey Imaging System (LI-COR Biotechnology, Lincoln, Nebr.), with integrated signal intensities determined for regions of interest using software version 3.0.16.
For immunofluorescence, frozen sections were post-fixed in cold methanol and incubated with polyclonal antibodies specific for p-SMAD1/5/8 (1:100, Cell Signaling, Danvers, Mass.) or MAC2 (1:100, Cedarlane, Burlington, ON) followed by FITC labeled Goat Anti-Rabbit IgG or Rhodamine Goat Anti-Rat IgG (both Jackson Immuno Research, West Grove, Pa.), respectively.
Mice were injected with Osteosense (to label sites of bone-forming activity via osteoblast binding of this probe) and Prosense (to label sites of macrophage-mediated inflammation). Aortae were explanted and subjected to fluorescence reflectance imaging (LICOR Odyssey imager).
Inflammatory activity, a surrogate of atherosclerotic plaque burden, was assessed by near-IR fluorescence of Prosense (fluor-cathepsin substrate) at […]. Ten individual mice were used in each treatment group.
Inflammatory activity, a surrogate of atherosclerotic plaque burden, was assessed by integrated intensity of near-IR fluorescence of Prosense (fluor-cathepsin substrate) at […].
Each treatment group consisted of a total of 10 mice. After 4 weeks of atherogenic diet and drug or vehicle treatment, the animals were sacrificed. The frontal plane sections of the aortic arch were dissected out and stained for macrophage marker (MAC2) and counterstained with DAPI.

[3] = tested on: human aortic endothelial cells; assay: Reactive oxygen species in human aortic endothelial cells; assay type: cell-based; conditions: HAECs, compound 13 100 nM, ALK3-Fc 500 ng/mL
Description: Cells plated in a 96-well format were pre-treated with compound 13, ALK3-Fc, or vehicle for 30 min followed by treatment with oxidized LDL, BMP2, or vehicle for 20 hours after starvation for six hours. H2O2 production with chloromethyl 2′,7′-dichlorodihydrofluorescein diacetate (DCF, 2 μM) and NADPH oxidase activity with lucigenin were measured as previously described. (Ichinose, F., et al. Cardiomyocyte-specific overexpression of nitric oxide synthase 3 prevents myocardial dysfunction in murine models of septic shock. Circ Res 100, 130-139 (2007); Sorescu, G. P., et al. Bone morphogenic protein 4 produced in endothelial cells by oscillatory shear stress induces monocyte adhesion by stimulating reactive oxygen species production from a nox1-based NADPH oxidase. Circ Res 95, 773-779 (2004); and Abid, M. R., Spokes, K. C., Shih, S. C. & Aird, W. C. NADPH oxidase activity selectively modulates vascular endothelial growth factor signaling pathways. J Biol Chem 282, 35373-35385 (2007).)
Hepatoma G2 (HepG2) cells and human aortic endothelial cells (HAECs) were purchased from the American type culture collection (Manassas, Va.). HepG2 cells were maintained in Eagle's Minimum Essential Medium (EMEM) supplemented with 10% fetal bovine serum, 100 units/ml of penicillin, 0.1 mg/ml of streptomycin and glutamine. HAECs were cultured in endothelial cell basal medium (EBM 2) supplemented with the EBM2 bullet kit (Lonza, Basel, Switzerland). For experiments, cells were seeded into 6 or 12-well plates (BD Falcon, Franklin Lakes, N.J.) at a concentration of 0.5×10^6 cells per 5 mL of media. HAECs were maintained in EBM 2 with 0.1% FBS without additional growth factors for all experiments. HepG2 cells were grown to 70% confluence before they were incubated in EMEM enriched with 0.1% FBS. ApoB-100 measurements were performed in supernatants from HepG2 that had been incubated in EMEM containing 0.5% bovine serum albumin using a commercially available Human ApoB-100 ELISA kit (Mabtech AB, Nacka Strand, Sweden). […]

[4] = tested on: HepG2 cells; assay: ApoB-100 secretion in HepG2 cells (ELISA); assay type: cell-based, human; conditions: compound 13 100 nM, atorvastatin 1 nM, ALK3-Fc 400 ng/mL
Description: Hepatoma G2 (HepG2) cells and human aortic endothelial cells (HAECs) were purchased from the American type culture collection (Manassas, Va.). HepG2 cells were maintained in Eagle's Minimum Essential Medium (EMEM) supplemented with 10% fetal bovine serum, 100 units/ml of penicillin, 0.1 mg/ml of streptomycin and glutamine. HAECs were cultured in endothelial cell basal medium (EBM 2) supplemented with the EBM2 bullet kit (Lonza, Basel, Switzerland). For experiments, cells were seeded into 6 or 12-well plates (BD Falcon, Franklin Lakes, N.J.) at a concentration of 0.5×10^6 cells per 5 mL of media. HAECs were maintained in EBM 2 with 0.1% FBS without additional growth factors for all experiments. HepG2 cells were grown to 70% confluence before they were incubated in EMEM enriched with 0.1% FBS. ApoB-100 measurements were performed in supernatants from HepG2 that had been incubated in EMEM containing 0.5% bovine serum albumin using a commercially available Human ApoB-100 ELISA kit (Mabtech AB, Nacka Strand, Sweden). BMP2 protein measurements were performed in supernatants from HAECs that had been incubated in EBM2 containing 0.1% FBS using a BMP2 ELISA kit (R&D Systems).

[5] = high fat diet and treatment 6 weeks, compound 13 2.5 mg/kg ip daily, ALK3-Fc 2 mg/kg ip every other day

With `c1ccc2c(-c3cnn4cc(-c5ccc(N6CCNCC6)cc5)cnc34)ccnc2c1` [Compound 13, 4-[6-(4-piperazin-1-ylphenyl)pyrazolo[1,5-a]pyrimidin-3-yl]quinoline] the “ectopic calcification and disability” value [1] was “prevented the ectopic calcification and disability”, the “MAC2 staining of aortic arch” value ([2]; atherogenic diet and treatment 4 weeks, compound 13 2.5 mg/kg IP daily, ALK3-Fc 2 mg/kg IP every other day) was “decreased staining for MAC2” and the “vascular inflammation / macrophage activity (Prosense)” value [2] was “marked reduction in vascular inflammation; also recorded: severely diminished evidence of macrophage activity”. For the same compound, the “vascular inflammation / macrophage activity (Prosense)” value ([2]; listed as BMP inhibitor positive control compound) was “can reduce vascular calcification and vascular inflammation”, the “foam cell accumulation / macrophage burden (MAC2)” value [2, 5] was “inhibited foam cell accumulation” and the “macrophage / cathepsin activity in aorta (Prosense)” value [2, 5] was “as did treatment with compound 13; also recorded: significantly reduced; also recorded: significantly inhibited”. For the same compound, the “BMP2-induced generation of reactive oxygen species (DCF fluorescence)” value ([3]; BMP2 20 ng/mL) was “compound 13- and ALK3-Fc-sensitive manner”, the “oxLDL-induced generation of reactive oxygen species (DCF fluorescence)” value ([3]; oxLDL 80 μg/mL) was “could inhibit oxLDL-induced ROS production” and the “oxLDL-induced generation of reactive oxygen species (lucigenin fluorescence)” value [3] was “could be blocked”. For the same compound, the “BMP2-induced ApoB-100 secretion” value ([4]; BMP2 100 ng/mL) was “blocked; also recorded: prevented the BMP2-mediated induction of ApoB-100 secretion” and the “basal ApoB-100 secretion (absence of BMP2)” value [4] was “reduced basal apolipoprotein B100 (ApoB-100) secretion; also recorded: inhibited ApoB-100 production”.
